Read-outs that look alike come from different tables or passages of the source. Non-standard residues stand in square brackets, D forms with d. Residues, ends and D or L forms follow the SMILES beside them. *: point of attachment. Dolaproine = CO[C@@H]([C@@H]1CCCN1)[C@@H](C)C(=O)O; Dil = CC[C@H](C)[C@H](NC)[C@@H](CC(=O)O)OC; X1 = C[C@@H](N*)[C@@H](O)c1ccccc1; NMeV = CN[C@H](C(=O)O)C(C)C
Columns and labels:
[1] = tested on: JIMT-1 (Her2 Low, human breast carcinoma); assay: CellTiter-Glo luminescence viability assay with MMAE ADC; assay type: cell-based; conditions: JIMT-1 cells, 96 hours, n = 3; read-out: IC50 (anti-proliferative effect)
Protocol: (§1) The CellTiter-Glo© luminescence viability assay was used to measure the inhibitory effect of the MMAE ADC prepared in Example 3 on cell growth.
(§2) Her2^High SK-BR-3 (human breast adenocarcinoma, ATCC® HTB-30, Manassas, VA, United States) were cultured in McCoy's 5A medium supplemented with 200 U/mL penicillin, 200 μg/mL streptomycin and 20% heat-inactivated fetal bovine serum. Her2^Low JIMT-1 (human breast carcinoma, ACC589, DSMZ, Braunschweig, Germany) were cultured in DMEM GlutaMax® medium supplemented with 200 U/mL penicillin, 200 μg/mL streptomycin and 10% heat-inactivated fetal bovine serum. Her2^Negative NCI-H520 (human lung squamous cell carcinoma, ATCC®-HTB-182) were cultured in RPMI medium supplemented with 200 U/mL penicillin, 200 μg/mL streptomycin and 10% heat-inactivated fetal bovine serum.
(§3) SK-BR-3, JIMT-1 and NCI-H520 cells were seeded in 96-well plates at a density of 5×10^3, 2×10^3 and 2.5×10^3 cells in 100 μL growth medium, respectively, and incubated for 24 hours at 37° C./5% CO2.
(§4) After 96 hours in the presence of ADCs or controls, viability was detected using the CellTiter-Glo® luminescence assay. Assay plates were equilibrated at room temperature for 20 minutes before addition of 100 μL CellTiter-Glo® reagent per well. The plates were then mixed for 3 minutes at 300 rpm to assist cell lysis and incubated for a further 20 minutes at room temperature to stabilise the luminescence signal. Luminescence was recorded using a SpectraMax i3x plate reader with a default integration time of 0.5 s/well.

[2] = tested on: NCI-H520 (Her2 Negative, human lung squamous cell carcinoma); assay: as above; assay type: cell-based; conditions: NCI-H520 cells, 96 hours, n = 3; read-out: IC50 (anti-proliferative effect)
Protocol: as §1, §2, §3, §4

[3] = tested on: SK-BR-3 (Her2 High, human breast adenocarcinoma); assay: as above; assay type: cell-based; conditions: SK-BR-3 cells, 96 hours, n = 3; read-out: IC50 (anti-proliferative effect)
Protocol: as §1, §2, §3, §4

[4] = tested on: SK-BR-3 cells (HER2 High, human breast adenocarcinoma); assay: CellTiter-Glo luminescence viability assay with SN-38 ADCs; assay type: cell-based; conditions: n = 3, read-out: SK-BR-3 IC50 Mean (±St. Dev.)
Protocol: The plates were then mixed for 3 minutes at 300 rpm to assist cell lysis and incubated for a further 20 minutes at room temperature to stabilise the luminescence signal.

[5] = tested on: NCI-N87 human gastric cancer CDX model; assay type: in vivo; conditions: 3 mg/kg IV single dose, PG-D42
Protocol: The objective of this study was to evaluate the in vivo anti-tumour efficacy of the MMAE ADC of Example 3 in the subcutaneous NCI-N87 human gastric cancer CDX model in female BALB/c Nude mice.
• Species: Mus musculus • Strain: BALB/c Nude • Age: 6-8 weeks • Sex: female • Body weight: 18-22 g
The NCI-N87 tumor cells (ATCC, Manassas, VA, cat #CRL-5822) were maintained in vitro as a monolayer culture in RPMI-1640 medium supplemented with 10% fetal bovine serum, 1% Antibiotic-Antimycotic, at 37° C. in an atmosphere of 5% CO2 in air. The tumour cells were routinely subcultured twice weekly by trypsin-EDTA treatment. The cells growing in an exponential growth phase were harvested and counted for tumour inoculation.
Each mouse for efficacy study was inoculated subcutaneously at the right flank with NCI-N87 tumour cells (10×10^6) in 0.2 mL of PBS supplemented with Matrigel (1:1) for tumour development. Treatments were started on day 6 after tumour inoculation when the average tumour size reached approximately 198 mm^3. […]
All the procedures related to animal handling, care and the treatment in the study were performed according to the guidelines approved by the Institutional Animal Care and Use Committee (IACUC) of the CRO following the guidance of the Association for Assessment and Accreditation of Laboratory Animal Care (AAALAC). At the time of routine monitoring, the animals were daily checked for any effects of tumour growth and treatments on normal behaviour such as mobility, food and water consumption (by looking only), body weight gain/loss (body weights were measured twice weekly), eye/hair matting and any other abnormal effect as stated in the protocol. Death and observed clinical signs were recorded on the basis of the numbers of animals within each subset.
The major endpoint was to see if the tumour growth could be delayed or mice could be cured. Tumour size was measured twice weekly in two dimensions using a calliper, and the volume was expressed in mm^3 using the formula: V=0.5a×b^2 where a and b are the long and short diameters of the tumour, respectively. […]

## CC[C@H](C)[C@@H]([C@@H](CC(=O)N1CCC[C@H]1[C@H](OC)[C@@H](C)C(=O)N[C@H](C)[C@@H](O)c1ccccc1)OC)N(C)C(=O)[C@@H](NC(=O)[C@@H](NC)C(C)C)C(C)C [MMAE, monomethyl auristatin E] (H-[NMeV]V[Dil][Dolaproine]-X1)
[1]
  IC50: 0.126 ± 0.053 nM
[2]
  IC50: 0.334 ± 0.114 nM
[3]
  IC50: 0.284 ± 0.138 nM

## CCc1c2c(nc3ccc(O)cc13)-c1cc3c(c(=O)n1C2)COC(=O)[C@]3(O)CC [SN-38]
[4]; 9 h exposure (limited), then further 96 hours
  IC50: 5.78 ± 2.01 nM
[4]; 96 h exposure (continuous)
  IC50: 1.17 ± 0.09 nM

## T-DM1
[5]
  T/C: 29.37%
  TGI: 78.58%
  mean tumour volume: 574 mm^3

— patent publication US20250041439A1, “ANTIBODY-DRUG CONJUGATES” (SPIREA LIMITED, priority 2021, published 2025)
